In ChEMBL document CHEMBL4425128, “Functional Characterization of Cholera Toxin Inhibitors Using Human Intestinal Organoids” (J Med Chem, 2016) one finds IC50 and inhibition data, which are given here for three compounds.

Test [1] can be described thus: Inhibition of HRP-tagged Vibrio cholerae cholera enterotoxin subunit B5 binding to GM1 coated plates using GM1os-beta-NAc-propargyl.
Test [2] can be described thus: Inhibition of cholera toxin in human intestinal organoids assessed as reduction in oganoids swelling using cholera toxin pre-incubated with compound for 4 hrs before organoid stimulation with cholera toxin by calcein AM staining based confocal microscopy. To be noted: Vibrio cholerae, Intestine.
The target in test [3] is Cystic fibrosis transmembrane conductance regulator (Homo sapiens) (UniProt P13569). In words: Inhibition of CFTR in human intestinal organoids assessed as reduction in forskolin-induced oganoids swelling incubated for 4 hrs with cholera toxin followed by subsequent stimulation with 0.1 uM forskolin by calcein AM staining based confocal microscopy. To be noted: Intestine.
Cystic fibrosis transmembrane conductance regulator (Homo sapiens), sequence (P13569 whole entry, looked up): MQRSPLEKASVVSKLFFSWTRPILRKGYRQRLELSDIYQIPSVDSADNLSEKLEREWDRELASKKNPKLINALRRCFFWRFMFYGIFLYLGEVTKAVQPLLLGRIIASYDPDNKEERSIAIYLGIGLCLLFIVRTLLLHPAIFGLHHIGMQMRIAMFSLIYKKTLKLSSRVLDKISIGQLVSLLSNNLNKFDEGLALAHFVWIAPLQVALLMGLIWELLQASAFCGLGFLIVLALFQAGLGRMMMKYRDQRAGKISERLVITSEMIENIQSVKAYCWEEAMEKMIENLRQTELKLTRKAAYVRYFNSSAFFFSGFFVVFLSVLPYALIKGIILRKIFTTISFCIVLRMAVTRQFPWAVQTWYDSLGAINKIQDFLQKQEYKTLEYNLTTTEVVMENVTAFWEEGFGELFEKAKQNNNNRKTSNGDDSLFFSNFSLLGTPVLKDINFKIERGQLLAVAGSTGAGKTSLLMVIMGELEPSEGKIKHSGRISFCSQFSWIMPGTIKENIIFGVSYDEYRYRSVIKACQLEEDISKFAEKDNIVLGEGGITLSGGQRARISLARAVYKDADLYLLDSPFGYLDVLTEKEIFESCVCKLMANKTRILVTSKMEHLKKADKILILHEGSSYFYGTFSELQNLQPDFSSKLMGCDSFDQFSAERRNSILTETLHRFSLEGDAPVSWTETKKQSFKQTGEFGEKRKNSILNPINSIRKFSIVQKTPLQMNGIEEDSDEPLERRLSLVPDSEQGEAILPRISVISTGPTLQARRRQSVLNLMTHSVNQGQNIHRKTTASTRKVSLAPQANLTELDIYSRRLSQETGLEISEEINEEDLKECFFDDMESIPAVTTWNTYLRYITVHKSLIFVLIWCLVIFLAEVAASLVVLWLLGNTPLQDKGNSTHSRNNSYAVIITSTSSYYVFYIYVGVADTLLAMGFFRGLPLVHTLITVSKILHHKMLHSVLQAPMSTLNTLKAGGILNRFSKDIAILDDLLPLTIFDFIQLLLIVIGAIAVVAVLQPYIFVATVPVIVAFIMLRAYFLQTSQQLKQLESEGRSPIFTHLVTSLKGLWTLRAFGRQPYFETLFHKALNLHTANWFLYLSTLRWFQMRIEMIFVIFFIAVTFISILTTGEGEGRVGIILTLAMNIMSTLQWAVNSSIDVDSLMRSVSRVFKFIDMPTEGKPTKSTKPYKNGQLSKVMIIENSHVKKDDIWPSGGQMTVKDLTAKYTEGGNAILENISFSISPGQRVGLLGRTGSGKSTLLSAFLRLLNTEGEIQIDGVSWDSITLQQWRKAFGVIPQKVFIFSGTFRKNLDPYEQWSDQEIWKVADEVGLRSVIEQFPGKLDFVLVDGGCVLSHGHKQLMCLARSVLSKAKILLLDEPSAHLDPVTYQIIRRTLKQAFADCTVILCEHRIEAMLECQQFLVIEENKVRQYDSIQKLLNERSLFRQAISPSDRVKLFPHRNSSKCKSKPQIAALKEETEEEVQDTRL

Calls of active or inactive are those of the source. The rule behind the calls is not given here.

The term IC50 denotes the midpoint of a concentration-inhibition curve.

For `CC(=O)N[C@H]1[C@H](O[C@@H]2[C@H](O[C@]3(C(=O)O)C[C@H](O)[C@@H](NC(C)=O)[C@H]([C@H](O)[C@H](O)CO)O3)[C@@H](O)[C@H](O[C@H]3[C@H](O)[C@@H](O)[C@H](N(Cc4cn([C@@H]5[C@@H](OC(C)=O)O[C@@H](n6cc(CN(C(C)=O)[C@@H]7O[C@H](CO)[C@@H](O[C@@H]8O[C@H](CO)[C@H](O[C@@H]9O[C@H](CO)[C@H](O)[C@H](O[C@@H]%10O[C@H](CO)[C@H](O)[C@H](O)[C@H]%10O)[C@H]9NC(C)=O)[C@H](O[C@]9(C(=O)O)C[C@H](O)[C@@H](NC(C)=O)[C@H]([C@H](O)[C@H](O)CO)O9)[C@H]8O)[C@H](O)[C@H]7O)nn6)[C@H](OC(C)=O)[C@H]5OC(C)=O)nn4)C(C)=O)O[C@@H]3CO)O[C@@H]2CO)O[C@H](CO)[C@H](O)[C@@H]1O[C@@H]1O[C@H](CO)[C@H](O)[C@H](O)[C@H]1O`, the values for the IC50 in test [1] and in test [2] were 0.008 µM and 0.018 µM, respectively. Moreover, the inhibition result in test [3] is “inactive”.
With `O=C[C@H](O)[C@@H](O)[C@@H](O)[C@H](O)CO` [GALACTOSE], in test [2], the IC50 was 9100 µM. The inhibition entry in test [3] was “inactive”.
With `CC(=O)N[C@H]1[C@H](O[C@@H]2[C@H](O[C@]3(C(=O)O)C[C@H](O)[C@@H](NC(C)=O)[C@H]([C@H](O)[C@H](O)CO)O3)[C@@H](O)[C@H](O[C@H]3[C@H](O)[C@@H](O)[C@H](N(Cc4cn(CCOCCOCCOCCO)nn4)C(C)=O)O[C@@H]3CO)O[C@@H]2CO)O[C@H](CO)[C@H](O)[C@@H]1O[C@@H]1O[C@H](CO)[C@H](O)[C@H](O)[C@H]1O`, the IC50 in test [1] was 0.11 µM; in test [2], 0.424 µM. In addition, the inhibition result in test [3] was “inactive”.
